Measured values taken from ChEMBL document CHEMBL5604062, “ASAP - ZIKV NS2B-NS3 protease fluorescence dose response” (2024).
Where “and” joins values, the source holds several entries; their conditions need not be identical. Equal entries are not always repeated.

Target: Nonstructural protein 3 (Zika virus, UniProt A0A024AXB9)
Assay: Functional biochemical assay to identify treatments for viral infectious disease that targets Zika NS2B-NS3 protease. Utilizing a direct enzyme activity measurement method, reading the fluorescence intensity is used to characterize the relative potency of inhibitors as IC50.
Design: species or system PRVABC59

Chain of Nonstructural protein 3 (A0A024AXB9 whole entry): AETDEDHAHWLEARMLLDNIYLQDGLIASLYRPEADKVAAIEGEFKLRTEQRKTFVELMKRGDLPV

Row | Structure (SMILES) | IC50
1 | O=C(Nc1cc(Cl)cc(C(=O)Nc2ccc3c(c2)CNC3)c1)OCc1ccccc1 | < 2.49 µM and 0.175 µM and 0.19 µM
2 | NCc1nccc(NC(=O)c2cc(Cl)cc(NC(=O)OCc3ccccc3)c2)n1 | > 99.5 µM
3 | CCn1cc(C(=O)Nc2ccccc2)nc(N2CC[C@@H](CO)C2)c1=O | > 99.5 µM
4 | NCc1cccc(NC(=O)c2cc(F)cc(NC(=O)OCc3ccccc3)c2F)c1 | 74.4 µM
5 | c1ccc2c(CNCc3ccc(-c4cscn4)cc3)c[nH]c2c1 | 81 µM
6 | c1cnc2c(c1)CC[C@@H]2NCc1n[nH]c2ccccc12 | > 99.5 µM
7 | C[C@@H](Cc1c[nH]c2ccccc12)N1CCC(c2nc3ccccc3s2)CC1 | > 99.5 µM
8 | Cc1nocc1S(=O)(=O)N[C@H](C(=O)Nc1cccc(CN)c1)c1ccc(OCc2ccccc2)cc1 | > 99.5 µM
9 | O=C(c1cccnc1)N1CCN(Cc2c[nH]c3ccccc23)CC1 | > 99.5 µM
10 | NCc1cccc(NC(=O)[C@@H](NS(=O)(=O)CCc2ccccc2)c2ccc(OCc3ccccc3)cc2)c1 | 34 µM
11 | NC1(c2cccc(NC(=O)c3cc(Cl)cc(NC(=O)OCc4ccccc4)c3)c2)CCC1 | > 99.5 µM
12 | Cc1ccc(-c2nc(NC(=O)[C@H](NC(=O)OCc3ccccc3)c3ccc(OCc4ccccc4)cc3)sc2CN(C)C)cc1 | > 99.5 µM
13 | CN(C)Cc1cc(NC(=O)c2cc(Cl)cc(NC(=O)OCc3ccccc3)c2)sn1 | > 99.5 µM
14 | NCc1cccc(NC(=O)c2cc(Cl)cc(CN)c2)c1 | < 2.49 µM
15 | NCc1cccc(NC(=O)[C@H](NC(=O)OCc2ccccc2)C2CCNCC2)c1 | > 99.5 µM
16 | NCc1cc(S(=O)(=O)Nc2ccc(Cl)cc2C(=O)O)ccc1Oc1ccccc1 | > 99.5 µM
17 | O=C(O)c1cc(Cl)cc(Cl)c1S(=O)(=O)Nc1ccc(Oc2ccccc2Cl)cc1 | > 99.5 µM
18 | NCc1cccc(S(=O)(=O)Nc2cc(Cl)cc(NC(=O)OCc3ccccc3)c2)c1 | > 99.5 µM
19 | NCc1cccc(NC(=O)[C@H](NC(=O)OCc2ccccc2)c2cccc(OCC3CCOCC3)c2)c1 | > 99.5 µM
20 | O=C(O)c1cc(Cl)ccc1NS(=O)(=O)c1ccc(-c2cscn2)cc1 | 43.1 µM
21 | NCc1ccccc1Oc1ccc(S(=O)(=O)Nc2ccc(Cl)cc2C(=O)O)cc1 | > 99.5 µM
22 | C[C@H]1CN(C(=O)c2cccc3c(CN)cccc23)CCC12CCNCC2 | > 99.5 µM
23 | CN1CCc2nc(NC(=O)c3cc(Cl)cc(NC(=O)OCc4ccccc4)c3)sc2C1 | > 99.5 µM
24 | O=C(O)c1cc(Cl)ccc1S(=O)(=O)N[C@H]1CC[C@@H](Oc2cnccn2)CC1 | > 99.5 µM
25 | COc1ncccc1S(=O)(=O)N[C@H](C(=O)Nc1cccc(CN)c1)c1ccc(OCc2ccccc2)cc1 | > 99.5 µM

Row | Structure (SMILES) | IC50
26 | O=S(=O)(c1cccnc1)N1CCN(Cc2c[nH]c3ccccc23)CC1 | > 99.5 µM
27 | COC(=O)[C@H](NC(=O)OC(C)(C)C)c1ccc(-c2csc(C)c2)cc1 | > 99.5 µM
28 | Fc1cc(F)c2[nH]cc(CN3CCC(c4cscn4)CC3)c2c1F | > 99.5 µM
29 | CC1=NN(c2ccc(NS(=O)(=O)c3ccc(Cl)cc3C(=O)O)cn2)C(=O)C1 | > 99.5 µM
30 | Cn1nc2c(c1NC(=O)[C@@H](NC(=O)OCc1ccccc1)c1ccc(OCc3ccccc3)cc1)CNC2 | > 99.5 µM
31 | CS(=O)(=O)c1cc(NC(=O)OCc2ccccc2)cc(C(=O)Nc2cccc(CN)c2)c1 | > 99.5 µM
32 | COC(=O)C1(S(=O)(=O)N[C@H](C(=O)Nc2cccc(CN)c2)c2ccc(OCc3ccccc3)cc2)CCC1 | 98.1 µM
33 | c1nc(C2CCN(Cc3n[nH]c4c3CCC4)CC2)cs1 | > 99.5 µM
34 | CCC1([C@H](NC(=O)OCc2ccccc2)C(=O)NCc2cccc(CN)c2)CCCCC1 | > 99.5 µM
35 | CC(C)(C)OC(=O)NCc1cccc(NC(=O)c2cc(N)cc(Cl)c2)c1 | > 99.5 µM
36 | Cc1c[nH]nc1CN1CCC(c2cscn2)CC1 | > 99.5 µM
37 | Cc1c(NC(=O)OCc2ccccc2)cc(C(=O)Nc2cccc(CN)c2)cc1C(F)(F)F | > 99.5 µM
38 | O=C(Nc1cc(Cl)cc(C(=O)Nc2ncc([C@H]3CCCN3)s2)c1)OCc1ccccc1 | > 99.5 µM
39 | CN1CCn2nc(NC(=O)c3cc(Cl)cc(NC(=O)OCc4ccccc4)c3)cc2C1 | > 99.5 µM
40 | c1nc(C2CCN(Cc3n[nH]c4c3COCC4)CC2)cs1 | > 99.5 µM
41 | CC(C)N1CCc2nc(NC(=O)c3cc(Cl)cc(NC(=O)OCc4ccccc4)c3)sc2C1 | > 99.5 µM
42 | O=C(O)c1cc(Cl)ccc1S(=O)(=O)Nc1ccc(CN2CCCCC2)cc1 | > 99.5 µM
43 | CC(C)c1cc(S(=O)(=O)N[C@H](C(=O)Nc2cccc(CN)c2)c2ccc(OCc3ccccc3)cc2)on1 | > 99.5 µM
44 | Cc1nc(CCCNCc2n[nH]c3ccccc23)cs1 | > 99.5 µM
45 | c1ccc(-c2c[nH]nc2CN2CCC(c3cscn3)CC2)cc1 | > 99.5 µM
46 | NCc1cccc(NC(=O)[C@@H](NS(=O)(=O)c2ccccn2)c2ccc(OCc3ccccc3)cc2)c1 | > 99.5 µM
47 | c1ccc2sc(C3CCN(CCc4c[nH]c5ccccc45)CC3)nc2c1 | > 99.5 µM
48 | NC[C@H]1CC[C@H](NC(=O)c2cc(Cl)cc(NC(=O)OCc3ccccc3)c2)CC1 | > 99.5 µM
49 | NCc1cccc(NC(=O)[C@@H]2CCC[C@H](NC(=O)OCc3ccccc3)C2)c1 | > 99.5 µM
50 | Cn1nc2c(c1NC(=O)c1cc(Cl)cc(NC(=O)OCc3ccccc3)c1)CNC2 | > 99.5 µM

Row | Structure (SMILES) | IC50
51 | NCc1cccc(NC(=O)[C@@H](NC(=O)OCc2ccccc2)c2ccc(-c3cccc4nonc34)cc2)c1 | 6.42 µM
52 | c1ccc2c(CN[C@H]3CCc4ncsc4C3)n[nH]c2c1 | > 99.5 µM
53 | NCc1cc(S(=O)(=O)Nc2ccc(Cl)cc2C(=O)NCC(F)(F)F)ccc1Oc1ccccc1 | > 99.5 µM
54 | O=C1CN(Cc2c[nH]c3ccccc23)CCN1c1cccnc1 | > 99.5 µM
55 | O=C(O)c1cc(Cl)ccc1S(=O)(=O)NC1CCN(S(=O)(=O)c2cccs2)CC1 | > 99.5 µM
56 | NCCNC(=O)c1cc(Cl)cc(NC(=O)OCc2ccccc2)c1 | > 99.5 µM
57 | NC1CCN(C(=O)c2cc(Cl)cc(NC(=O)OCc3ccccc3)c2)CC1 | > 99.5 µM
58 | c1ccc(-c2ncc(CN3CCC(c4nc5ccccc5s4)CC3)[nH]2)cc1 | > 99.5 µM
59 | COc1cc2c(CN3CCC(c4cscn4)CC3)c[nH]c2cc1Cl | 49.6 µM
60 | CC1(C)CNC[C@H](C(=O)Nc2cccc(CN)c2)C1 | > 99.5 µM
61 | CCn1cc(C(=O)N2CCN(C)CC2)nc(N2CC[C@@H](CO)C2)c1=O | > 99.5 µM
62 | O=C(O)c1cc(Cl)ccc1S(=O)(=O)Nc1ccc(S(=O)(=O)Nc2ccccc2)cc1 | > 99.5 µM
63 | c1cc(CN2CCC(c3cscn3)CC2)[nH]n1 | > 99.5 µM
64 | c1cncc(N2CCCN(Cc3c[nH]c4ccccc34)CC2)c1 | > 99.5 µM
65 | O=C(O)c1cc(Cl)ccc1S(=O)(=O)N[C@H]1CC[C@H](Oc2cnccn2)CC1 | > 99.5 µM
66 | NCc1cccc(NC(=O)[C@H](NS(=O)(=O)c2cccnc2)c2ccc(OCc3ccccc3)cc2)c1 | > 99.5 µM
67 | N#Cc1ccc2[nH]cc(CN3CCC(c4cscn4)CC3)c2c1 | 17.8 µM
68 | NCc1cccc(NC(=O)[C@H](NC(=O)OCc2ccccc2)c2cccc(OCc3ncccn3)c2)c1 | > 99.5 µM
69 | CCn1c(=O)c(N2CCC[C@H]2c2nncs2)nc2ccccc21 | > 99.5 µM
70 | COc1cc(NC(=O)OCc2ccccc2)cc(C(=O)Nc2cccc(CN)c2)c1 | 78.8 µM
71 | Cc1cc(CN(C)C)cc(NC(=O)[C@H](NC(=O)OCc2ccccc2)c2ccc(OCc3ccccc3)cc2)c1 | > 99.5 µM
72 | NCc1cccc(NC(=O)c2cc(NC(=O)OCc3ccccc3)cc(Cl)c2Cl)c1 | 43.9 µM
73 | NCc1cccc(NC(=O)c2ccc(OCC(F)(F)F)c(NC(=O)OCc3ccccc3)c2)c1 | 48.7 µM
74 | CCn1nc(-c2ccccc2)cc1NS(=O)(=O)c1ccc(Cl)cc1C(=O)O | 29.6 µM
75 | C[C@H]1CNC[C@H](C(=O)Nc2cccc(CN)c2)C1 | > 99.5 µM

Row | Structure (SMILES) | IC50
76 | Cc1nn(C)cc1S(=O)(=O)N[C@@H](C(=O)Nc1cccc(CN)c1)c1ccc(OCc2ccccc2)cc1 | > 99.5 µM
77 | N#Cc1cccc2c(CN3CCC(c4cscn4)CC3)c[nH]c12 | > 99.5 µM
78 | Cn1ccc(Nc2ccc(S(=O)(=O)Nc3ccc(Cl)cc3C(=O)O)cn2)n1 | > 99.5 µM
79 | Cn1ccnc1S(=O)(=O)N[C@@H](C(=O)Nc1cccc(CN)c1)c1ccc(OCc2ccccc2)cc1 | > 99.5 µM
80 | FC1(c2cccnc2)CN(Cc2c[nH]c3ccccc23)C1 | > 99.5 µM
81 | NCc1ccc(Oc2ccc(S(=O)(=O)Nc3ccc(Cl)cc3C(=O)NCC(F)(F)F)cc2)cc1 | > 99.5 µM
82 | Cc1ccc(CN(C)C)cc1NC(=O)[C@@H](NC(=O)OCc1ccccc1)c1ccc(OCc2ccccc2)cc1 | > 99.5 µM
83 | CN1CCn2nc(NC(=O)[C@@H](NC(=O)OCc3ccccc3)c3ccc(OCc4ccccc4)cc3)cc2C1 | > 99.5 µM
84 | c1cncc([C@@H]2CN(Cc3c[nH]c4ccccc34)CCO2)c1 | > 99.5 µM
85 | Cc1c(C(F)(F)F)n[nH]c1CN1CCC(c2cscn2)CC1 | > 99.5 µM
86 | NCc1cccc(NC(=O)[C@@H](NS(=O)(=O)c2ccccc2F)c2ccc(OCc3ccccc3)cc2)c1 | 99 µM
87 | CCS(=O)(=O)N[C@@H](C(=O)Nc1cccc(CN)c1)c1ccc(OCc2ccccc2)cc1 | > 99.5 µM
88 | CC(C)N1CCc2nc(NC(=O)[C@H](NC(=O)OCc3ccccc3)c3ccc(OCc4ccccc4)cc3)sc2C1 | > 99.5 µM
89 | Cn1nccc1CN1CCC(NS(=O)(=O)c2ccc(Cl)cc2C(=O)O)CC1 | > 99.5 µM
90 | NCc1cccc(NC(=O)[C@@H]2C[C@H](NC(=O)OCc3ccccc3)[C@H]3C[C@H]32)c1 | > 99.5 µM
91 | O=C(Nc1cccnc1)C1CCN(Cc2c[nH]c3ccccc23)CC1 | 64.3 µM
92 | NCc1cccc(NC(=O)[C@H](NS(=O)(=O)C[C@H]2COCCO2)c2ccc(OCc3ccccc3)cc2)c1 | > 99.5 µM
93 | Cc1csc(COc2cccc([C@H](NC(=O)OCc3ccccc3)C(=O)Nc3cccc(CN)c3)c2)n1 | 29.8 µM
94 | CN(Cc1cccnc1)Cc1c[nH]c2ccccc12 | > 99.5 µM
95 | Cc1[nH]c2ccccc2c1CN1CCC(c2nc3ccccc3s2)CC1 | 2.89 µM
96 | C[C@H]1CC[C@H](CS(=O)(=O)N[C@H](C(=O)Nc2cccc(CN)c2)c2ccc(OCc3ccccc3)cc2)CC1 | 15.4 µM
97 | COCc1ccccc1Nc1ccc(S(=O)(=O)Nc2ccc(Cl)cc2C(=O)O)cn1 | 98.8 µM
98 | NCc1cccc(NC(=O)[C@H](NS(=O)(=O)Cc2ccccc2)c2ccc(OCc3ccccc3)cc2)c1 | 64.5 µM
99 | NCc1cccc(NC(=O)[C@H](NC(=O)OCc2ccccc2)c2cccc(OCc3ccccn3)c2)c1 | > 99.5 µM
100 | NCc1ccc(Oc2ccc(S(=O)(=O)Nc3ccc(Cl)cc3C(=O)O)cc2)cc1 | > 99.5 µM
